These results are taken from article PMC8950173 (Pharmaceuticals, 2022).

Molecules are shown by their SMILES.

The target of one series is T1, human recombinant HDAC2 (Homo sapiens, UniProt Q92769).
T1 construct: purchased BPS Bioscience Inc. 50052
As to the kind of experiment: Inhibition assay HDAC2 (fluorogenic substrate ZMAL). As to conditions: 60 min preincubation at 25 °C. The series is classed as biochemical. Here is the method:
(§1) In vitro inhibitory activities against HDAC1−3 and HDAC6 were measured as previously published with minor modifications. […] Subsequently, 50 µL trypsin solution (0.4 mg/mL trypsin in buffer: 50 mM Tris−HCl, pH = 8.0, 100 mM NaCl) was added, followed by additional 30 min of incubation at 37 °C. […] All compounds were tested at least twice in duplicates.

The target of a further series is T2, human recombinant HDAC6 (Homo sapiens, UniProt Q9UBN7).
T2 construct: purchased BPS Bioscience Inc. 50006
T2 sequence (Q9UBN7 1-1215): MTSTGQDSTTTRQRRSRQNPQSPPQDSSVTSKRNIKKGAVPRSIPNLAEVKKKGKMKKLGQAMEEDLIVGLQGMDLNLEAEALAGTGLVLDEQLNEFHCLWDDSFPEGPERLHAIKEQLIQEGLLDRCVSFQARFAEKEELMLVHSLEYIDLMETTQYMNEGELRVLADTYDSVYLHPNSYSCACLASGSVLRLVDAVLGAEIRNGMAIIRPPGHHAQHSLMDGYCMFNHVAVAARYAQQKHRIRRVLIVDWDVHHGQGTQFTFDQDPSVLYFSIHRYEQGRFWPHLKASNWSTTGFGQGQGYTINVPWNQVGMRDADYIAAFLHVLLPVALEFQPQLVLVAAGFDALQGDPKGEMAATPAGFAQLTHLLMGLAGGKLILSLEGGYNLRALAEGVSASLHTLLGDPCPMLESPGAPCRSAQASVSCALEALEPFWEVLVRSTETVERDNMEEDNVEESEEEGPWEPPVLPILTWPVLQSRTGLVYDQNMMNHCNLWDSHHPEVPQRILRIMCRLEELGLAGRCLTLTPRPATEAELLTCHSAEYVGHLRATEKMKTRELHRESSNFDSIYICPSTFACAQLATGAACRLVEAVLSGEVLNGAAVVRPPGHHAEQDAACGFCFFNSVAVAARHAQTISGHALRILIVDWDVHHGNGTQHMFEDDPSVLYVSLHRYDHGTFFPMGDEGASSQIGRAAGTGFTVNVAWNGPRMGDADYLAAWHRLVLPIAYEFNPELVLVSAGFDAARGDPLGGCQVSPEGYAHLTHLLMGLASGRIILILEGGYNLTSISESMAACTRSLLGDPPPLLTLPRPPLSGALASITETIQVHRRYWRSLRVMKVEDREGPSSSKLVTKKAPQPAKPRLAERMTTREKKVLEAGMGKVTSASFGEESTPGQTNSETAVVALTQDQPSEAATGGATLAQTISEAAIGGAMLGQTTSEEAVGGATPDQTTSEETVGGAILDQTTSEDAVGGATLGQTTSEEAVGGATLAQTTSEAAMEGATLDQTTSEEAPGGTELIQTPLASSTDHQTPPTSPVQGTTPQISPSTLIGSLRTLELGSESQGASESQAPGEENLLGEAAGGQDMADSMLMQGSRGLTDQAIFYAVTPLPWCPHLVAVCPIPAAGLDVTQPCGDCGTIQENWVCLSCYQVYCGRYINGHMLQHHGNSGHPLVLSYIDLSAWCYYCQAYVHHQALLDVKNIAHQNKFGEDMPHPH
As to the kind of experiment: Inhibition assay HDAC6 (fluorogenic substrate ZMAL). The series is classed as biochemical. As to conditions: for IC50: 15 min preincubation at 25 °C. Here is the method: as §1

Series [1] addresses human recombinant HDAC3/NcoR2 (Homo sapiens, UniProt O15379). In words: Inhibition assay HDAC3 (fluorogenic substrate ZMAL). The series is classed as biochemical. The settings on record: for IC50: 60 min preincubation at 25 °C; for specificity ratio (HDAC1/HDAC3): HDAC1 over HDAC3, from IC50 values. Here is the method:
as §1

The next series deals with T3, human recombinant HDAC1 (Homo sapiens, UniProt Q13547).
T3 construct: purchased BPS Bioscience Inc. 50051
T3 sequence (Q13547 whole entry): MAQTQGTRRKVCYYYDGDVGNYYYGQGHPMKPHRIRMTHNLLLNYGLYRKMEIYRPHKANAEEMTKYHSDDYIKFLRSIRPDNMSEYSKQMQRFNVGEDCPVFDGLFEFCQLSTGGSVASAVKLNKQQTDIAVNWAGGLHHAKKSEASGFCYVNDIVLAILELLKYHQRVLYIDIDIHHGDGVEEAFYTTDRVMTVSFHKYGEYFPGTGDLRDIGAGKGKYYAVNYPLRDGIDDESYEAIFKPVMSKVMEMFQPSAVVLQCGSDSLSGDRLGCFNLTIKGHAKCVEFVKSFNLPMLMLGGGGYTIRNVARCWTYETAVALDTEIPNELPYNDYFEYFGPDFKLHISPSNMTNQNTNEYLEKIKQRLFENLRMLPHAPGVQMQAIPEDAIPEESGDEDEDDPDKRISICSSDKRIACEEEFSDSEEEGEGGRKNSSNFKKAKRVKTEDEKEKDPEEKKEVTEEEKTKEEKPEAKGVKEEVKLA
As to the kind of experiment: Inhibition assay HDAC1 (fluorogenic substrate ZMAL). The series is classed as biochemical. As to conditions: 60 min preincubation at 25 °C. Here is the method: as §1

A short description of series [2]: Solubility observed in cell culture medium. The series is classed as physicochemical. The settings on record: 50 µM in cell culture medium supplemented with 0.5% DMSO.
The next series deals with rat F98 glioma cells. In words: MTS assay, cancer cell viability, F98. The series is classed as cell-based. As to conditions: 72 h, mean ± SD, n = 3, read-out: Cell Viability [%] (Vehicle = 100%) F98. Here is the method: (§2) F98 cells (obtained from ATCC® Washington, DC, USA) and U251-MG cells (obtained from Drs A. Feldmann and N. Metwasi, Department of Radioimmunology, HZDR, Rossendorf, Germany) were cultivated in Dulbecco’s Modified Eagle Medium (DMEM, Gibco, Invitrogen, Dun Laoghaire, Ireland) supplemented with 10% heat inactivated fetal bovine serum (Gibco, Invitrogen, Dun Laoghaire, Ireland), and 100 U/mL penicillin and 100 µg/mL streptomycin (Gibco, Invitrogen, Dun Laoghaire, Ireland) in a humidified atmosphere in a CO2 incubator (37 °C, 5% CO2).
(§3) Proliferation of F98 and U251-MG cells was determined using a commercially available MTS assay (CellTiter 96® AQueous One Solution Cell Proliferation Assay, Promega GmbH, Walldorf, Germany). Briefly, the cells were seeded into 96-well plates at a density of 5 × 10^4 cells/well 24 h prior to the experiment at 37 °C in a humidified, 5% CO2 atmosphere. On the day of the experiment, the cell culture medium was replaced by fresh medium supplemented with either test compounds (working concentration: 50 µM; prepared by 1:200 dilution from a 10 mM stock solution in 100% DMSO with cell culture medium) or vehicle (0.5% DMSO in cell culture medium), and the cells were incubated for 72 h. Subsequently, 20 µL of the MTS solution was added per well and the plate was incubated in the CO2 incubator for another 2 h. Afterwards, the absorbance was measured at a wavelength of 490 nm using a microplate reader (Model 680 microplate reader, Bio-Rad Laboratories GmbH, Feldkirchen, Germany).
Background: Tetrazolium dyes change colour on reduction, which living cells bring about.

Series [3] has as its system human U251-MG glioblastoma cells. As to the kind of experiment: MTS assay, cancer cell viability, U251-MG. The series is classed as cell-based. The settings on record: U-251, 72 h, mean ± SD, n = 3, read-out: Cell Viability [%] (Vehicle = 100%) U251-MG. The procedure:
as §2, §3

T1 sequence (Q92769 whole entry): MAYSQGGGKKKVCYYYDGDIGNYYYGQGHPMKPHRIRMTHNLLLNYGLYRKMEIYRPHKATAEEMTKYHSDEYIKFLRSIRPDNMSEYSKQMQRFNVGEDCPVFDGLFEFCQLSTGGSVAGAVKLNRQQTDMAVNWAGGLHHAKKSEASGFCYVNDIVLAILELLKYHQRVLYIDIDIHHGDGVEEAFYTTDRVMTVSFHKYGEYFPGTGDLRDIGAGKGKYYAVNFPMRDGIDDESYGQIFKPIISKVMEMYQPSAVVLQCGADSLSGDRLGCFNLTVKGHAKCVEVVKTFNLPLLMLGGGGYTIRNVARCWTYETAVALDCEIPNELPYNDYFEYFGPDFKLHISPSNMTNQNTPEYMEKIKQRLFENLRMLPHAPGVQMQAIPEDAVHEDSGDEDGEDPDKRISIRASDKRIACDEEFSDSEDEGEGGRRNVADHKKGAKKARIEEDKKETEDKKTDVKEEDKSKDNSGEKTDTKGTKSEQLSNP
human recombinant HDAC3/NcoR2, sequence (O15379 whole entry): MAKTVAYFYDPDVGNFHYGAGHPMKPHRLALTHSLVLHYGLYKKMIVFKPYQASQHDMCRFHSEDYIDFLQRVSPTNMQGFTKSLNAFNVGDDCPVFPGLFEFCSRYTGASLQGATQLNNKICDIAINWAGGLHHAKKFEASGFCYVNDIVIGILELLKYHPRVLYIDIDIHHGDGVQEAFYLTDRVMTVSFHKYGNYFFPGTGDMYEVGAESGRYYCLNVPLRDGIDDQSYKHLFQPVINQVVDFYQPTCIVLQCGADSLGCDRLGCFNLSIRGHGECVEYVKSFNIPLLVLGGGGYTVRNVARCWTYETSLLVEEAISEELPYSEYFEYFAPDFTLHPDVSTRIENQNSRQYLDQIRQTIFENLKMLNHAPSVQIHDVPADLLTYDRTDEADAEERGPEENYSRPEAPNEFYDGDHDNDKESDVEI
human recombinant HDAC3/NcoR2, sequence (Q9Y618 395-489 partner limits assumed): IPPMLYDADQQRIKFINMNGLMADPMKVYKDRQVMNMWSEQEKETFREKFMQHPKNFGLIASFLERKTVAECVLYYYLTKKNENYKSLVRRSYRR

Take `CC(F)C(=O)NCc1ccc(C(=O)Nc2cc(-c3cccs3)ccc2N)cc1` (stereo not drawn) [BA1, N-[2-amino-5-(thiophen-2-yl)phenyl]-4-[(2-fluoropropanamido)methyl]benzamide]: the IC50 – broadly, the concentration needed to halve the response being measured – at human recombinant HDAC2 was 64.3 ± 4.5 nM; on human recombinant HDAC6, above 10000 nM; in series [1], 2300 ± 190 nM; at human recombinant HDAC1 it was 4.8 ± 0.4 nM. In addition, in series [1], the “specificity ratio (HDAC1/HDAC3)” value came to 479.
As to `CC(F)C(=O)Nc1ccc(C(=O)Nc2cc(-c3cccs3)ccc2N)cc1` (stereo not drawn) [BA2, N-[2-amino-5-(thiophen-2-yl)phenyl]-4-(2-fluoropropanamido)benzamide], the half-inhibitory concentration (IC50) was 33.5 ± 1.5 nM at human recombinant HDAC2, above 10000 nM at human recombinant HDAC6, above 1110 nM in series [1] and 8.3 ± 1.4 nM on human recombinant HDAC1.
Take `CC(F)C(=O)NCc1ccc(C(=O)Nc2cc(-c3ccsc3)ccc2N)cc1` (stereo not drawn) [BA3, N-[2-amino-5-(thiophen-3-yl)phenyl]-4-[(2-fluoropropanamido)methyl]benzamide]: the IC50 on human recombinant HDAC2 was 39.9 ± 3.2 nM; at human recombinant HDAC6, above 10000 nM; in series [1], above 1110 nM; on human recombinant HDAC1 it was 4.8 ± 0.6 nM. Moreover, in series [2], the “solubility in cell culture medium” value is on record as “slight precipitation”. The “specificity ratio HDAC1 over HDAC6” value at human recombinant HDAC6 (from IC50 values) was above 2080. In series [1], the “specificity ratio (HDAC1/HDAC3)” value is reported as above 230.
As to `CC(F)C(=O)Nc1ccc(C(=O)Nc2cc(-c3ccsc3)ccc2N)cc1` (stereo not drawn) [BA4, N-[2-amino-5-(thiophen-3-yl)phenyl]-4-(2-fluoropropanamido)benzamide], the IC50 is 38.1 ± 4.5 nM on human recombinant HDAC2, above 10000 nM on human recombinant HDAC6, above 3330 nM in series [1] and 11.2 ± 2.4 nM on human recombinant HDAC1.
The corresponding values for `CC(F)C(=O)NCc1ccc(C(=O)Nc2cc(-c3ccc(F)cc3)ccc2N)cc1` (stereo not drawn) [BA5, N-(4-amino-4′-fluoro-[1,1′-biphenyl]-3-yl)-4-[(2-fluoropropanamido)methyl]benzamide] are 32.2 ± 5.5 nM, above 10000 nM, 1300 ± 70 nM and 10.2 ± 0.4 nM.
As to `CC(F)C(=O)Nc1ccc(C(=O)Nc2cc(-c3ccc(F)cc3)ccc2N)cc1` (stereo not drawn) [BA6, N-(4-amino-4′-fluoro-[1,1′-biphenyl]-3-yl)-4-(2-fluoropropanamido)benzamide], the half-inhibitory concentration (IC50) is 56.6 ± 0.6 nM at human recombinant HDAC2, above 10000 nM at human recombinant HDAC6, above 1110 nM in series [1] and 14.9 ± 0.4 nM at human recombinant HDAC1. In addition, in series [1], the “specificity ratio (HDAC1/HDAC3)” value is above 74.
As to `CC(F)C(=O)NCc1ccc(C(=O)Nc2cc(-c3ccco3)ccc2N)cc1` (stereo not drawn) [BA7, N-[2-amino-5-(furan-2-yl)phenyl]-4-[(2-fluoropropanamido)methyl]benzamide], the concentration for half-maximal inhibition (IC50) on human recombinant HDAC2 was 69.1 ± 1.2 nM; on human recombinant HDAC6, above 10000 nM; in series [1], 3800 ± 180 nM; at human recombinant HDAC1, 20.4 ± 0.3 nM.
As to `CC(F)C(=O)Nc1ccc(C(=O)Nc2cc(-c3ccco3)ccc2N)cc1` (stereo not drawn) [BA8, N-[2-amino-5-(furan-2-yl)phenyl]-4-(2-fluoropropanamido)benzamide], the half-inhibitory concentration (IC50) at human recombinant HDAC2 is 82.1 ± 0.1 nM; on human recombinant HDAC6, above 10000 nM; in series [1] it was 4200 ± 80 nM; at human recombinant HDAC1, 24.2 ± 2.9 nM.
As for `CC(F)C(=O)NCc1ccc(C(=O)Nc2cc(-c3ccoc3)ccc2N)cc1` (stereo not drawn) [BA9, N-[2-amino-5-(furan-3-yl)phenyl]-4-[(2-fluoropropanamido)methyl]benzamide], the IC50 at human recombinant HDAC2 was 56.3 ± 0.2 nM; at human recombinant HDAC6, above 10000 nM; in series [1], 2400 ± 250 nM; at human recombinant HDAC1 it was 19.8 ± 0.4 nM.
Taken in the same sequence, the figures for `CC(F)C(=O)Nc1ccc(C(=O)Nc2cc(-c3ccoc3)ccc2N)cc1` (stereo not drawn) [BA10, N-[2-amino-5-(furan-3-yl)phenyl]-4-(2-fluoropropanamido)benzamide] were 47.7 ± 2.9 nM, above 10000 nM, 3300 ± 480 nM and 17 ± 1.2 nM.
`Nc1ccccc1NC(=O)c1ccc(CNC(=O)OCc2cccnc2)cc1` [entinostat]: the figures for the viability at 50 µM (in the series with rat F98 glioma cells; in series [3]) were 27.5 ± 4.4% and 55 ± 11.2%, respectively.
Take `CC(=O)Nc1ccc(C(=O)Nc2ccccc2N)cc1` [tacedinaline]: the viability (usually a read-out of living cells in per cent, often relative to untreated cells) at 50 µM in the series with rat F98 glioma cells is 27.1 ± 3%; in series [3] it was 28.5 ± 3%.
The corresponding values for `O=C(CCCCCCC(=O)Nc1ccccc1)NO` [vorinostat] are 24.4 ± 7.9% and 36.9 ± 7.6%.
